Source: patent US4088772A, “Methanodibenzocycloheptapyrroles” (E. I. Du Pont de Nemours and Company, priority 1975, dated 1978)
Where a name gives a salt, the structure may show the parent alone. Read-outs that look alike come from different tables or passages of the source.

Assays:
[1] = system: phenylquinone-induced writhing; experiment: Phenylquinone writhing test (analgesia); format: in vivo, mouse (Carworth CF1 S female); settings: for ED50: Mus musculus
Description: This mouse test is predictive of analgesic response in humans. [E. Siegmund, R. Cadmus and G. Lee, Proc. Soc.
ED50 values were obtained graphically from the data.

female white mice = experiment: animal or person; settings: Mus musculus, po, oral, mice
Description: (§1) Groups of five Carworth CF1 S female mice, 16-20 g each, were fasted 16-22 hours before use. The mice were put in opaque plastic "shoe-box" cages 15-30 min. before injection, and then treated orally with 4, 12, 36, 108 and 324 mg/kg of the compound to be tested as a 13 mg/ml solution in 1% aqueous distilled water solution of methylcellulose (Methocel®). Each dose was given in a standard volume of 0.45 ml. Observations were made at 0.5, 2 and 24 hours after dosing. ED50 values were calculated for each parameter including death (LD50). The ED50 and LD50 values are the doses at which 50% of the naimals would be expected to respond.
(§2) The mouse is placed on a stainless steel wire mesh screen (8 × 12 inches, 3 mesh per inch, 1/4 inch mesh openings) "shoe-box" lid (1 inch high) and is observed for normal activities, such as nose movements, head movements with apparent visual examination of the area, and/or walking around on the screen. Absence of or marked depression of these activities for 5 seconds constitutes loss of exploratory activity.
(§3) The mouse is picked up by the tail and placed on the screen with its head facing the observer. Bilateral eyelid closure of 50% or more two seconds after placement is considered ptosis.
(§4) The mouse is placed with its front paws on the edge of a stainless steel "shoe-box" cover, 1 inch high, covered with adhesive tape. Failure to remove both paws from the cover's edge within 5 seconds constitutes catatonia.
(§5) The observer gently strokes the abdominal musculature of the mouse with thumb and forefinger. Flaccidity (or rarely, tenseness) is recorded.
(§6) The mouse is gently swung by the tail toward a horizontal 12 gauge wire tautly stretched 25 cm above the bench. After the mouse grasps the wire with its forepaws, its posterior end is held directly below the wire. A normal mouse grasps the wire with its forepaws and immediately lifts its hind limbs to the wire. Failure to grasp the wire with the forepaws in both trials constitutes loss of the grip reflex; failure to lift the hind limbs to grasp the wire with at least one hind paw within 5 seconds constitutes loss of the lift reflex.
(§7) The mouse is placed on the bar 10-20 cm horizontally and 9 cm vertically from a Galton whistle adjusted for 13 kc (5 mm on the whistle scale) and is subjected to several short bursts of sound.
(§8) An effective tranquilizer should induce little or no tremor response. […] Tremors include fine or coarse and intermittent or continuous tremors.

in vivo = settings: mouse, in vivo, po
Description: as §1, §2, §3, §4, §5, §6, §7, §8

[2] = read-out: Catatonia ED50, Table 1
[3] = read-out: Exploratory Loss Visual ED50, Table 1
[4] = read-out: Muscle Tone ED50, Table 1
[5] = read-out: Reflexes Grip ED50, Table 1
[6] = read-out: Reflexes Lift ED50, Table 1
[7] = read-out: Reflexes Pinna ED50, Table 1
[8] = read-out: Catatonia ED50, Table III
[9] = read-out: Exploratory Loss Visual ED50, Table III
[10] = read-out: Muscle Tone ED50, Table III
[11] = read-out: Ptosis ED50, Table III
[12] = read-out: Reflexes Grip ED50, Table III
[13] = read-out: Reflexes Lift ED50, Table III
[14] = read-out: Reflexes Pinna ED50, Table III

SMILES | ED50 ([1]; po, Table 1, mice) [mg/kg] | ED50 (female white mice; [2]) [mg/kg] | ED50 (female white mice; [3]) [mg/kg] | ED50 (female white mice; [4]) [mg/kg] | ED50 (female white mice; read-out: Ptosis ED50, Table 1) [mg/kg] | ED50 (female white mice; [5]) [mg/kg] | ED50 (female white mice; [6]) [mg/kg] | ED50 (female white mice; [7]) [mg/kg] | ED50 (in vivo) [mg/kg] | LD50 at 24 h (in vivo) [mg/kg] | ED50 ([1]; po, Table III, mice) [mg/kg] | ED50 (female white mice; [8]) [mg/kg] | ED50 (female white mice; [9]) [mg/kg] | ED50 (female white mice; [10]) [mg/kg] | ED50 (female white mice; [11]) [mg/kg] | ED50 (female white mice; [12]) [mg/kg] | ED50 (female white mice; [13]) [mg/kg] | ED50 (female white mice; [14]) [mg/kg] | also measured
COCCN1C[C@@H]2c3ccccc3[C@@H]3C[C@@]2(C1)c1ccccc13 (relative stereo) [Example 41, 2-(2-Methoxyethyl)-2,3,8,12b-tetrahydro-1H-3a,8-methanodibenzo[3,4:6,7]cyclohepta[1,2-c]pyrrole] | 4.2 | 20 | 20 | 36 | 20 | 200 | 36 | 20 | > 324 | 300 | – | – | – | – | – | – | – | – | –
C1=CCCC(CN2C[C@@H]3c4ccccc4[C@@H]4C[C@@]3(C2)c2ccccc24)CC1 (relative stereo) [Example 33, 2-(4-Cycloheptenylmethyl)-2,3,8,12b-tetrahydro-1H-3a,8-methanodibenzo[3,4:6,7]cyclohepta[1,2-c]pyrrole] | 3.3 | 11 | 9 | 7 | 4 | > 324 | 19 | 37 | > 324 | > 324 | – | – | – | – | – | – | – | – | –
c1ccc2c(c1)[C@@H]1C[C@@]3(CN(C4CCC4)C[C@H]23)c2ccccc21 (relative stereo) [Example 47, 2-Cyclobutyl-2,3,8,12b-tetrahydro-1H-3a,8-methanodibenzo[3,4:6,7]cyclohepta[1,2-c]pyrrole] | – | 60 | 60 | 60 | 36 | 200 | 60 | 36 | – | > 324 | – | – | – | – | – | – | – | – | ED50 ([1]; Table 1, oral, mice): 9.6 mg/kg; ED50 (in vivo; Tremors ED50, Table 1, mice): > 324 mg/kg
CC(=O)Nc1ccc2c(c1)[C@]13C[C@H]2c2ccccc2[C@H]1CN(CC1CCCC1)C3 (relative stereo) [Example 65, 5-Acetamido-2-cyclopentylmethyl-2,3,8,12b-tetrahydro1H-3a,8-methanodibenzo[3,4:6,7]cyclohepta[1,2-c]pyrrole Hydrochloride] | – | – | – | – | – | – | – | – | – | 300 | 18 | 60 | 200 | 60 | 7 | > 324 | 60 | 36 | –
Oc1ccc2c(c1)[C@]13C[C@H]2c2ccccc2[C@H]1CN(CC1CCCC1)C3 (relative stereo) [Example 68, 5-Hydroxy-2-cyclopentylmethyl-2,3,8,12b-tetrahydro-1H-3a,8-methanodibenzo[3,4:6,7]cyclohepta[1,2-c]pyrrole Hydrochloride] | – | – | – | – | – | – | – | – | – | > 324 | 19 | 20 | 12 | 20 | 12 | > 324 | 60 | 36 | –
[O-][N+]1(CC2CCCC2)CC2c3ccccc3C3CC2(C1)c1ccccc13 (stereo not drawn) [Cyclopentylmethyl-N-oxide, N-Oxide of 2-cyclopentylmethyl-2,3,8,12b-tetrahydro-1H-3a,8-methanodibenzo[3,4:6,7]cyclohepta[1,2-c]-pyrrole] | 24 | 36 | 12 | 12 | ≤ 4 | > 324 | 20 | 7 | > 324 | > 324 | – | – | – | – | – | – | – | – | –
C#CCN1CC2c3ccccc3C3CC2(C1)c1ccccc13 (stereo not drawn) [Example 18, 2-Propargyl-2,3,8,12b-tetrahydro-1H-3a,8-methanodibenzo[3,4:6,7]cyclohepta[1,2-c]pyrrole] | – | 100 | 200 | 300 | 200 | > 324 | 200 | > 324 | – | > 324 | – | – | – | – | – | – | – | – | ED50 ([1]; Table 1, oral, mice): > 135 mg/kg; ED50 (in vivo; Tremors ED50, Table 1, mice): > 324 mg/kg
COC(=O)c1ccc2c(c1)[C@]13C[C@H]2c2ccccc2[C@H]1CN(CC1CCCC1)C3 (relative stereo) [Example 74, 2-Cyclopentylmethyl-2,3,8,12b-tetrahydro-1H-3a,8-methanodibenzo[3,4:6,7]cyclohepta[1,2-c]pyrrole-5-carboxylic Acid Hydrochloride, Methyl Ester] | – | – | – | – | – | – | – | – | – | > 324 | 11 | 36 | 36 | 36 | < 4 | > 324 | 36 | 7 | –
Clc1ccc2c(c1)[C@H]1CN(CC3CCCC3)C[C@@]13C[C@@H]2c1ccc(Cl)cc13 (relative stereo) [Example 79, 5,11-Dichloro-2-cyclopentylmethyl-2,3,8,12b-tetrahydro1H-3a,8-methanodibenzo[3,4:6,7]cyclohepta[1,2-c]pyrrole Hydrochloride] | – | – | – | – | – | – | – | – | – | > 324 | – | 20 | 7 | 36 | 7 | > 324 | 36 | 7 | Phenylquinone Analgesia ED50 ([1]; Table III, oral, mice): active
Clc1ccc2c(c1)[C@]13C[C@H]2c2ccccc2[C@H]1CN(CC1CCCC1)C3 (relative stereo) [Example 76, 5-Chloro-2-cyclopentylmethyl-2,3,8,12b-tetrahydro-1H-3a,8-methanodibezno[3,4:6,7]cyclohepta[1,2-c]pyrrole Hydrochloride] | – | – | – | – | – | – | – | – | – | 300 | < 130 | 12 | 7 | 12 | 7 | > 324 | 20 | 20 | –
c1ccc(OCCN2C[C@@H]3c4ccccc4[C@@H]4C[C@@]3(C2)c2ccccc24)cc1 (relative stereo) [Example 40, 2-(2-Phenoxyethyl)-2,3,8,12b-tetrahydro-1H-3a,8-methanodibenzo[3,4:6,7]cyclohepta[1,2-c]pyrrole] | 5.3 | 12 | 60 | 20 | 7 | > 324 | 20 | 12 | > 324 | > 324 | – | – | – | – | – | – | – | – | –
Nc1ccc2c(c1)[C@]13C[C@H]2c2ccccc2[C@H]1CN(CC1CCCC1)C3 (relative stereo) [Example 64, 5-Amino-2-cyclopentylmethyl-2,3,8,12b-tetrahydro-1H-3a, 8-methanodibenzo[3,4:6,7]cyclohepta[1,2-c]pyrrole Hydrochloride] | – | – | – | – | – | – | – | – | – | > 324 | 6.2 | < 4 | < 4 | < 4 | < 4 | 200 | 12 | 7 | –
Nc1ccc2c(c1)[C@H]1CN(CC3CCCC3)C[C@@]13C[C@@H]2c1ccc(N)cc13 (relative stereo) [Example 72, 5,11-Diamino-2-cyclopentylmethyl-2,3,8,12b-tetrahydro-1H-3a,8-methanodibenzo[3,4:6,7]cyclohepta[1,2-c]pyrrole] | – | – | – | – | – | – | – | – | – | > 324 | 7 | 20 | 60 | 36 | – | 200 | 60 | 20 | –
c1csc(CN2C[C@@H]3c4ccccc4[C@@H]4C[C@@]3(C2)c2ccccc24)c1 (relative stereo) [Example 54, 2-(2-Thienylmethyl)-2,3,8,12b-tetrahydro-1H-3a,8-methanodibenzo[3,4:6,7]cyclohepta[1,2-c]pyrrole] | 27 | 200 | 200 | 200 | 60 | > 324 | > 324 | 200 | > 324 | > 324 | – | – | – | – | – | – | – | – | –
